Results: US8673869B2, “Determinants of sensitivity to chemotherapeutic agents” (Western Sydney Local Health District, priority 2004, dated 2014)

How the values were obtained:
SC2 cells [1] = experiment: Clonogenic survival of ANKRD1-transfected SC2 clones exposed to cisplatin; format: cell-based, Chinese hamster; details: SC2 clones transfected with rat ANKRD1 cDNA vs untransfected and vector control, 6 μM cisplatin, FIG. 5
Description: FIG. 5. […] Rat ANKRD1 cDNA was transfected into SC2 cells and transfected clones selected. ANKRD1-transfected clones were exposed to 6 μM cisplatin and the surviving fraction was measured by clonogenic assay. Survival in 4 transfected clones (SC2+ANKRD1) was compared with untransfected SC2 cells and empty vector-control transfected SC2 cells (SC2+vector).
To determine whether ANKRD1 has the ability to decrease sensitivity to cisplatin, rat ANKRD1 cDNA in the pcDNA3.1 expression vector, under the control of a CMV promoter, (a gift from the laboratory of Prof. L. Kedes, University of Southern California, USA) was transfected into the ANKRD1-deficient, platinum-sensitive SC2 mutant using Lipofectamine 2000 (Invitrogen Life Technologies, Carlsbad, Calif., USA). Transfected clones were selected and maintained in 400 μg/ml G-418 (Gibco-BRL).

SC2 cells [2] = experiment: Cisplatin sensitivity by colony formation (clonogenic assay); format: cell-based, Chinese hamster; details: 10 uM cisplatin for 2 hr, colony formation over 6 days, percentage of vehicle-treated control
Description: (§1) FIG. 2. Cisplatin sensitivity of CHO cell lines. Parental CHO-K1 and the platinum-sensitive clone SC2 were exposed to a range of cisplatin (CDDP) concentrations for 2 hrs. The drug was then removed and the surviving cell fraction was determined by colony formation over 6 days. Colonies were fixed, stained with 0.1% crystal violet and counted. The results are expressed as a percentage of vehicle-treated control (mean and standard error from duplicate plates in at least three separate experiments) at differing cisplatin (CDDP) concentrations. The present inventors have used a novel approach to identify genes that determine sensitivity to platinum-based chemotherapeutic agents. This strategy utilized the mutant Chinese hamster ovary (CHO) cell line SC2 which is more sensitive to platinum than the parent CHO-K1 cell line. Parental CHO-K1 and mutant CHO cell lines were provided as a gift from Dr I Hickson and Dr C Robson (Imperial Cancer Research Fund, Oxford UK) (Robson, C, et al, 1985). The strategy adopted is outlined in FIG. 1. CHO-K1 cells were mutagenised with ethyl methane sulphonate (EMS). Mutants with altered sensitivity to cisplatin were isolated using replica plating. […] The drug was then removed and the surviving cell fraction was determined by colony formation over 6 days. Colonies were fixed, stained with 0.1% crystal violet and counted. […]

CHO-K1 cells = experiment: as above; format: cell-based, Chinese hamster; details: 10 uM cisplatin for 2 hr, colony formation over 6 days, percentage of vehicle-treated control
Description: as §1

[3] = test system: human ovarian and breast cell lines; experiment: Relative cisplatin sensitivity (IC37) by MTS proliferation assay; format: cell-based; details: 72 hr drug exposure, FIG. 7B
Description: FIG. 7. Expression of ANKRD1 in ovarian and breast cell lines. RNA was extracted from a range of normal and malignant ovarian and breast cell lines. ANKRD1 expression was measured by real-time PCR. A. Results are shown as relative mRNA levels, corrected for human P0 (acidic phosphoprotein P0; also known as 36B4, part of the 60S ribosomal RNA complex) and 18S rRNA. All cell lines are human. HOSE 17.1 and BRE-80 are normal ovarian and breast cell lines respectively; the remaining cell lines are malignant. B. Cisplatin (CDDP) sensitivity was determined for 13 of the cell lines. Survival was determined by MTS assay after exposing the cells to drug for 72 hr. The IC37 is shown for each cell line, results are the mean determined from between two and seven independent experiments. Asterix indicates IC37 not determined. C. Association between growth inhibition by cisplatin (IC37) and expression of ANKRD1 mRNA in 13 cell lines.
Relative cisplatin sensitivity was measured in 13 cell lines using a colorimetric proliferation assay. Cells were seeded into 96-well plates in a volume of 100 μl at 500 to 2000 cells per well. […] IC37 values were calculated for each cell line from survival curves, using data generated from between two to seven independent experiments.

[4] = test system: CHO-K1 cells and SC2 cells; experiment: Carboplatin and oxaliplatin cell survival by modified MTS assay; format: cell-based, Chinese hamster; details: 2 hr drug exposure, 6 days incubation, FIG. 9
Description: FIG. 9. Effect of carboplatin (A) and oxaliplatin (B) on cell survival in CHO-K1 cells (diamonds) and SC2 cells (squares). Cell survival was measured by modified MTS assay. Results are expressed as a percentage of the vehicle-treated control, as a mean and standard error of triplicate wells from six independent experiments. Results were subjected to a paired t-test where * is p<0.05 and ** is p<0.005.
CHO-K1 and SC2 cells were each seeded into 24-well plates, incubated overnight then exposed to a range of concentrations of carboplatin or oxaliplatin for 2 hr. The drugs were removed, wells washed and the growth media replaced. Cells were incubated for 6 days and cell proliferation measured using a modified colorimetric MTS (3-(4,5-dimethylthiazol-2-yl)-5-(3-carboxy-methoxyphenyl)-2-(4-sulfophenyl)-2H-tetrazolium, inner salt) proliferation assay. MTS solution was added to each well and colour development measured on a plate reader at 490 nm.

ANKRD1 = ANKRD1 mRNA by real-time PCR in siRNA transfected CHO-K1 cells; format: cell-based, Chinese hamster; details: pools of stably transfected CHO-K1 cells, relative to parent CHO-K1, FIG. 6A
Description: FIG. 6. Increased sensitivity to cisplatin in CHO-K1 cells following reduction of ANKRD1 expression by siRNA. CHO-K1 were transfected with one of three inserts designed to knock-down ANKRD1 expression by targeting regions of the open reading frame encoding the N-terminus (siRNA41; SEQ ID NO: 5), the central portion (siRNA58; SEQ ID NO: 6) or the C-terminus (siRNA77; SEQ ID NO: 7). Pools (P1) of siRNA transfected cells were selected and maintained in hygromycin B. A. ANKRD1 mRNA was measured by real-time PCR. Results are shown as a percentage of the parent CHO-K1 ANKRD1 mRNA levels and corrected for rodent GAPDH (glyceraldehyde-3-phosphate dehydrogenase) and 18S rRNA. B. Cisplatin (CDDP) sensitivity in CHO-K1 and siRNA transfected cells was measured by clonogenic assay. The results are expressed as the mean and standard error of duplicate plates from at least three separate experiments.
To confirm that ANKRD1 was able to modulate platinum sensitivity, the converse hypothesis was tested, that decreasing ANKRD1 expression in the resistant, CHO-K1 cell line would increase sensitivity. Three 19 bp siRNA oligonucleotides were designed to regions encoding the N- and C-terminus as well as to a central portion of the coding region of the CHO ANKRD1 sequence. The sequences of the sense strands of these siRNA oligonucleotides are shown in SEQ ID NOs: 5 (siRNA41), 6 (siRNA58) and 7 (siRNA77). […]
To examine ANKRD1 mRNA expression, 100 ng of cDNA used as templates in real-time PCR using the ABI PRISM 7700 Sequence Detection System (PE Applied Biosystems). Samples were made up in a final volume of 25 μL with Platinum Quantitative PCR Supermix-UDG (Invitrogen) and 250 nM of each primer set. […] Relative concentrations of ANKRD1 and housekeeping genes were determined by comparison of Ct values to a standard curve produced using a sample containing cDNA produced from RNA of known concentration. […]

N.N.[Cl][Pt][Cl] [cisplatin]
resistance to cisplatin after ANKRD1 transfection (SC2 cells [1]): increased resistance | cell survival (SC2 cells [2]): less than 2% | cell survival (CHO-K1 cells): greater than 80% | relative cisplatin response (IC37) ([3]; COLO 316, T-47D and MCF-7 cell lines): among the most resistant | relative cisplatin response (IC37) ([3]; HOSE 17.1, A2780 and PEO1 cell lines): amongst the most sensitive

N.N.O=C([O-])C1(C(=O)[O-])CCC1.[Pt+2] [carboplatin]
resistance of CHO-K1 cells compared to SC2 cells [4]: significantly more resistant

O=C1[O][Pt]2([NH][C@@H]3CCCC[C@H]3[NH]2)[O]C1=O [oxaliplatin]
resistance of CHO-K1 cells compared to SC2 cells [4]: significantly more resistant

B1: siRNA58: 19 bp siRNA targeting the central portion of the ANKRD1 coding region, expressed from pSilencer 2.1-U6 hygro vector (nucleic acid)
chain: GATCCCGTTCCGTGATATGCTTGAATTTCAAGAGAATTCAAGCATATCACGGAATTTTTTGGAA
modifications: the letters are possibly those of the target site
notes: 19 bp siRNA targeting the central portion of the ANKRD1 coding region, expressed from pSilencer 2.1-U6 hygro vector
ANKRD1 expression (mRNA) (ANKRD1): similarly reduced

B2: siRNA41: 19 bp siRNA targeting the region of the ANKRD1 open reading frame encoding the N-terminus, expressed from pSilencer 2.1-U6 hygro vector (nucleic acid)
chain: GATCCCAGTTCCAGTTGTGAAGGAATTCAAGAGATTCCTTCACAACTGGAACTTTTTTTGGAAA
modifications: the letters are possibly those of the target site
notes: 19 bp siRNA targeting the region of the ANKRD1 open reading frame encoding the N-terminus, expressed from pSilencer 2.1-U6 hygro vector
ANKRD1 expression (mRNA) (ANKRD1): virtually ablated

B3: siRNA77: 19 bp siRNA targeting the region of the ANKRD1 open reading frame encoding the C-terminus, expressed from pSilencer 2.1-U6 hygro vector (nucleic acid)
chain: GATCCCGTGGAACCAAAGCAATATTCTTCAAGAGAGAATATTGCTTTGGTTCCATTTTTTGGAAA
modifications: the letters are possibly those of the target site
notes: 19 bp siRNA targeting the region of the ANKRD1 open reading frame encoding the C-terminus, expressed from pSilencer 2.1-U6 hygro vector
ANKRD1 expression (mRNA) (ANKRD1): similarly reduced
